The text below walks through data of US20200325116A1, “SOLID FORMS OF A PLASMA KALLIKREIN INHIBITOR AND SALTS THEREOF” (KALVISTA PHARMACEUTICALS LIMITED, priority 2017, published 2020).

Data set [1] relates to LPS-induced disseminated intravascular coagulation. The note with it: cited from earlier work.
Another data set concerns blood. The note with it: contacting blood with the substance; cited from earlier work.
The test system of data set [2] is intrinsic pathway of coagulation. The note with it: in vitro; cited from earlier work.
The test system of another data set is postoperative bleeding. The note with it: in vivo; cited from earlier work.
The target of a further data set is trypsin. Briefly: Enzyme selectivity, trypsin. It counts as biochemical, human. The note with it: substrate at Km concentration.
The nature of data set [3]: In vitro permeability, Caco-2 model for oral absorption. The note with it: human, Caco-2; 50 μM, apical to basolateral, 1 hour at 37° C. It counts as in vitro ADME. On the procedure:
(§1) In vitro permeability was determined using the Caco-2 model for oral absorption. The methodology was adapted from standard published methods (Wang Z, Hop C. E., Leung K. H. and Pang J. (2000) J Mass Spectrom 35(1); 71-76). […] For the assay, 50 μM test compound is added to the apical side of the inserts and incubated for 1 hour at 37° C. on a shaking platform (120 rpm). Apical to basolateral transport was determined by measuring the test article in both compartments by LCMS following the 1 hour incubation. The integrity of the Caco-2 monolayers was confirmed by two methods, (i) comparison of pre- and post-experiment transepithelial electrical resistance (TEER) and, (ii) assessment of Lucifer Yellow flux.

A further data set relates to Caco-2 monolayers. The data set is described as above. It counts as in vitro ADME. On the procedure:
as §1

The nature of data set [4]: Pharmacokinetics after a single oral dose in rats. Format: in vivo. The note with it: male, Sprague-Dawley, rat, 10% DMSO/10% cremophor/80% SWFI, plasma. On the procedure:
Pharmacokinetic studies of the compounds in Table 4 were performed to assess the pharmacokinetics following a single oral dose in male Sprague-Dawley rats. […] Following dosing, blood samples were collected over a period of […]. Sample times were 5, 15 and 30 minutes then 1, 2, 4, 6, 8 and 12 hours. Following collection, blood samples were centrifuged and the plasma fraction analysed for concentration of test compound by LCMS.

For another data set, the target named is T1, Human KLK1 (Homo sapiens, UniProt P06870).
T1 construct: purchased Callbiochem
T1 sequence (P06870 25-262): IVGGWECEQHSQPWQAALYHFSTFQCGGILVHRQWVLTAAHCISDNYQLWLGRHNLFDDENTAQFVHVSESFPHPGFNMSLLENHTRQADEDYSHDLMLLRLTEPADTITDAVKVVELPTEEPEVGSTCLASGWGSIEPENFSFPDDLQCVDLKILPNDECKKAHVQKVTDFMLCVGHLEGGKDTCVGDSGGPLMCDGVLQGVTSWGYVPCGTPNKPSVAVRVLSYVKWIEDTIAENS
Briefly: Determination of the IC50 for KLK1. Format: biochemical. The note with it: 25° C., substrate H-DVal-Leu-Arg-AFC. On the procedure: KLK1 inhibitory activity in vitro was determined using standard published methods (see e.g. Johansen et al., Int. J. Tiss. Reac. 1986, 8, 185; Shori et al., Biochem. Pharmacol., 1992, 43, 1209; Stürzebecher et al., Biol. Chem. Hoppe-Seyler, 1992, 373, 1025). Human KLK1 (Callbiochem) was incubated at 25° C. with the fluorogenic substrate H-DVal-Leu-Arg-AFC and various concentrations of the test compound. Residual enzyme activity (initial rate of reaction) was determined by measuring the change in optical absorbance at 410 nm and the IC50 value for the test compound was determined.

In a further data set the target is T2, Human FXIa (Homo sapiens, UniProt P03951).
T2 construct: purchased Enzyme Research Laboratories
T2 sequence (P03951 388-625 limits assumed): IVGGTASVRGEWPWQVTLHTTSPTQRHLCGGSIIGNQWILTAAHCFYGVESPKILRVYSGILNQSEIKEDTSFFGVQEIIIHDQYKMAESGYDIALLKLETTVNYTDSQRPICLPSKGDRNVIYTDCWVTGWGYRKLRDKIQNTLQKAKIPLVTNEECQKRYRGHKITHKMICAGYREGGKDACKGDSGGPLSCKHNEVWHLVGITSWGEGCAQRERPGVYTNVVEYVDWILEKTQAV
T2 sequence (P03951 19-387 partner limits assumed): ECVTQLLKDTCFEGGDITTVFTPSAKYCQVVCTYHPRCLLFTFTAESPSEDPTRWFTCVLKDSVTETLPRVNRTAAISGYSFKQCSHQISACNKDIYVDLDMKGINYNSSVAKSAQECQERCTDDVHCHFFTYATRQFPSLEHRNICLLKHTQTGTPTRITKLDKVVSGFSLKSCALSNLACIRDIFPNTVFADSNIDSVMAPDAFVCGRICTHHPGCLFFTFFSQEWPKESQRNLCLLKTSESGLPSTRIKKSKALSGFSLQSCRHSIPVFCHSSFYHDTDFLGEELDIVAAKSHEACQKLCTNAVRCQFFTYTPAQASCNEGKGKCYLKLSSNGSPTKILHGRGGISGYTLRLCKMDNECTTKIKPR
Kind of data set: Determination of the % inhibition / IC50 for FXIa. The note with it: 25° C., substrate Z-Gly-Pro-Arg-AFC. It counts as biochemical. Here is the method:
Residual enzyme activity (initial rate of reaction) was determined by measuring the change in optical absorbance at 410 nm and the IC50 value for the test compound was determined.

A further data set has as its target T3, Human Factor XIIa (Homo sapiens, UniProt P00748).
T3 construct: purchased Enzyme Research Laboratories
Kind of data set: Determination of the IC50 for FXIIa. The note with it: 25° C., substrate H-DPro-Phe-Arg-AFC. Format: biochemical. Here is the method:
Factor XIIa inhibitory activity in vitro was determined using standard published methods (see e.g. Shori et al., Biochem. Pharmacol., 1992, 43, 1209; Baeriswyl et al., ACS Chem. Biol., 2015, 10 (8) 1861; Bouckaert et al., European Journal of Medicinal Chemistry 110 (2016) 181). Human Factor XIIa (Enzyme Research Laboratories) was incubated at 25° C. with the fluorogenic substrate H-DPro-Phe-Arg-AFC and various concentrations of the test compound. Residual enzyme activity (initial rate of reaction) was determined by measuring the […] and the IC50 value for the test compound was determined.

A further data set deals with rats. The note with it: systemic administration; cited from earlier work.

pIC50: −log10 of the molar value.

T3 sequence (P00748 373-615 limits assumed, other chains not shown): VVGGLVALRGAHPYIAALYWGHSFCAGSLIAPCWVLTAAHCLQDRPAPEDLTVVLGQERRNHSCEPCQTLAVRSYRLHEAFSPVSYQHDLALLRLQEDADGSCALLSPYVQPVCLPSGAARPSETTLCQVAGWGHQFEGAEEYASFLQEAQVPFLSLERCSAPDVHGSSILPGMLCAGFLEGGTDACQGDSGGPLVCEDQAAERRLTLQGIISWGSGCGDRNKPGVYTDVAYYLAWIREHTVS
Method for trypsin: Human serine protease enzymes plasmin, thrombin and trypsin were assayed for enzymatic activity using an appropriate fluorogenic substrate. Protease activity was measured by monitoring the accumulation of liberated fluorescence from the substrate over 5 minutes. The linear rate of fluorescence increase per minute was expressed as percentage (%) activity. The Km for the cleavage of each substrate was determined by standard transformation of the Michaelis-Menten equation.

For `Cl.NCC1CCC(C(=O)N[C@@H](Cc2ccccc2)C(=O)Nc2ccc(CC(=O)O)cc2)CC1` (stereo partly drawn) [PKSI-527], in data set [1], the “decrease in platelet count and fibrinogen level, increase in FDP level” value is “significantly suppressed”.

As for Ecallantide, in the data set with blood, the “activated clotting time (ACT)” value is given as “increase”. Also, in data set [2], the “contact activated induced coagulation” value is listed as “delay”.

In the case of aprotinin, the postoperative bleeding entry with postoperative bleeding is reported as “decrease”.

The pIC50 is the IC50 on a negative log10 scale, so that one unit is a factor of ten. Low readings indicate a large IC50, high ones a small IC50. The Papp A→B is how fast a substance crosses the layer from the apical side. Low readings indicate poor permeation, high ones ready permeation. Broadly, the Cmax is the maximum level reached in the sampled fluid or tissue. One may read the Tmax as the time at which the peak concentration occurs. `COc1ccnc(CNC(=O)c2cn(Cc3ccc(Cn4ccccc4=O)cc3)nc2C(F)(F)F)c1F` [Compound of Formula A, N-[(3-fluoro-4-methoxypyridin-2-yl)methyl]-1-({4-[(2-oxopyridin-1-yl)methyl]phenyl}methyl)-3-(trifluoromethyl)pyrazole-4-carboxamide] gave a pIC50 against trypsin below 4.40. In data set [3], the Papp A→B at 1 h, 50 μM came out at 17 ×10⁻⁶ cm/s. Moreover, the “pharmacokinetic properties, in particular in vitro permeability (in words)” value in the data set with Caco-2 monolayers is reported as “surprisingly good”. Besides, in data set [4] (po 2.2 mg/kg), the Cmax was found to be 1800 ng/mL and the Tmax was 0.5 h.

As to `COCc1nn(Cc2ccc(Cn3ccccc3=O)cc2)cc1C(=O)NCc1nccc(OC)c1F` [Example 41 of WO2016/083820, N-[(3-fluoro-4-methoxypyridin-2-yl)methyl]-3-(methoxymethyl)-1-({4-[(2-oxopyridin-1-yl)methyl]phenyl}methyl)pyrazole-4-carboxamide], the pIC50 against Human KLK1, at Human FXIa and against Human Factor XIIa was below 4.40 in each case. The compound further came in with a Cmax in [4] (po 10.5 mg/kg) of 1530 ng/mL. Further, the Tmax in data set [4] (po 10.5 mg/kg) was 3 h.

As for `N=C(N)c1ccc(CNC(=O)c2cnn(Cc3ccccc3)c2)cc1` [ASP-440], in the data set on rats, the hematoma expansion entry is reported as “reduced”.
